Several values for one entry are separate records, joined by “and”; a condition that tells them apart may be missing. Equal values may be shown once.
Test: xn = mol fraction of the nth substance listed
Conditions: x2 = 0.79; for electrical conductivity / mass density: 100 kPa, Liquid; for electrical conductivity: Alternating current cell with electrodes; for mass density: Buoyancy - hydrostatic balance; for surface tension liquid-gas: Maximal bubble pressure

[Ca+2].[F-].[F-] [calcium fluoride] + [F-].[Li+]
Conditions	electrical conductivity [S/m]	mass density	surface tension liquid-gas [mN/m]
1063.8 K	0.053003	–	–
1065.5 K	0.053101	–	–
1067.1 K	0.053153	–	–
1068.8 K	0.05333	–	–
1070.4 K	0.05353	–	–
1071.9 K	0.05375	–	–
1073.5 K	0.05359	–	–
1075.2 K	0.0537	–	–
1075.7 K	–	2107.8 kg/m3	–
1075.9 K	–	2107.3 kg/m3	–
1076.2 K	–	2106.7 kg/m3 and 2107.8 kg/m3	–
1076.7 K	–	2106.6 kg/m3	–
1076.8 K	0.05368	2106 kg/m3	–
1077.1 K	–	2106 kg/m3	–
1077.5 K	–	2105.4 kg/m3	–
1077.7 K	–	2104.8 kg/m3	–
1078 K	–	2104.8 kg/m3	–
1078.4 K	–	2104.2 kg/m3	–
1078.5 K	0.05386	–	–
1078.7 K	–	2104.1 kg/m3	–
1079.1 K	–	2103.5 kg/m3	–
1079.4 K	–	2103.5 kg/m3	–
1079.8 K	–	2102.9 kg/m3	–
1080 K	–	2102.9 kg/m3	–
1080.1 K	0.05394	–	–
1080.3 K	–	2102.3 kg/m3	–
1080.7 K	–	2101.7 kg/m3	–
1081.1 K	–	2101.6 kg/m3	–
1081.4 K	–	2101 kg/m3	–
1081.8 K	0.054	2101 kg/m3	–
1082 K	–	2100.4 kg/m3	–
1082.4 K	–	2099.8 kg/m3	–
1082.9 K	–	2099.7 kg/m3	–
1083.4 K	0.0542	–	–
1083.5 K	–	2099.1 kg/m3	–
1083.6 K	–	2099.1 kg/m3	–
1083.8 K	–	2098.5 kg/m3	–
1084.3 K	–	2098.5 kg/m3	–
1084.5 K	–	2097.9 kg/m3	–
1085 K	–	2097.8 kg/m3	–
1085.1 K	0.05436	–	–
1085.5 K	–	2097.2 kg/m3	–
1085.9 K	–	2096.6 kg/m3	–
1086.1 K	–	2096.6 kg/m3	–
1086.4 K	–	2096 kg/m3	–
1086.8 K	0.05455	–	–
1086.9 K	–	2095.9 kg/m3	–
1087.2 K	–	2095.3 kg/m3	–
1087.8 K	–	2094.7 kg/m3	–
1088.2 K	–	2094.7 kg/m3	–
1088.4 K	0.05469	–	–
1088.6 K	–	2094.1 kg/m3	–
1088.8 K	–	2094 kg/m3	–
1089.3 K	–	2093.4 kg/m3	–
1089.5 K	–	2092.8 kg/m3	–
1090 K	–	2092.8 kg/m3	–
1090.1 K	0.05496	–	–
1090.5 K	–	2092.2 kg/m3	–
1090.8 K	–	2092.1 kg/m3	–
1091.2 K	–	2093.7 kg/m3	–
1091.7 K	–	2093.7 kg/m3	–
1091.8 K	0.05506	–	–
1091.9 K	–	2093.1 kg/m3	–
1092.8 K	–	2091.9 kg/m3 and 2092.4 kg/m3	–
1093.1 K	–	2091.3 kg/m3	–
1093.4 K	0.05525	–	–
1093.8 K	–	2091.2 kg/m3	–
1094.1 K	–	2090.6 kg/m3	–
1094.4 K	–	2090.6 kg/m3	–
1094.8 K	–	2092.8 kg/m3	–
1095 K	–	2092.2 kg/m3	–
1095.1 K	0.05547	–	–
1095.5 K	–	2092.1 kg/m3	–
1096.2 K	–	2090.9 kg/m3	–
1096.3 K	–	2090.9 kg/m3 and 2091.5 kg/m3	–
1096.7 K	–	2090.3 kg/m3	–
1096.8 K	0.0556	–	–
1096.9 K	–	2089.7 kg/m3	–
1097.3 K	–	2089.1 kg/m3	–
1097.6 K	–	2089.1 kg/m3	–
1098 K	–	2088.5 kg/m3	–
1098.4 K	–	2087.9 kg/m3	–
1098.5 K	0.05571	–	–
1098.8 K	–	2087.3 kg/m3	–
1099.1 K	–	2087.2 kg/m3	–
1099.5 K	–	2086.6 kg/m3	–
1099.9 K	–	2086 kg/m3	–
1100.2 K	0.05586	2086 kg/m3	–
1100.7 K	–	2085.4 kg/m3	–
1101 K	–	2084.8 kg/m3	–
1101.5 K	–	2084.2 kg/m3	–
1101.8 K	–	2084.1 kg/m3	–
1101.9 K	0.05606	–	–
1102.1 K	–	2083.6 kg/m3	–
1102.6 K	–	2082.9 kg/m3	–
1102.9 K	–	2082.4 kg/m3	–
1103.2 K	–	2082.3 kg/m3	–
1103.6 K	0.05634	–	–
1103.8 K	–	2081.7 kg/m3	–
1104.2 K	–	2081.1 kg/m3	–
1104.6 K	–	2080.5 kg/m3	–
1105.2 K	–	2079.9 kg/m3	–
1105.3 K	0.05637	–	–
1105.5 K	–	2079.3 kg/m3	–
1105.7 K	–	2079.2 kg/m3	–
1106.3 K	–	2078.6 kg/m3	–
1106.6 K	–	2078 kg/m3	–
1107 K	–	2077.4 kg/m3	–
1107.1 K	0.05654	–	–
1107.6 K	–	2077.4 kg/m3	–
1107.9 K	–	2076.8 kg/m3	–
1108.5 K	–	2076.1 kg/m3	–
1108.8 K	0.05671	2076.1 kg/m3	–
1109.1 K	–	2074.4 kg/m3	–
1109.5 K	–	2073.8 kg/m3	–
1110 K	–	2073.2 kg/m3	–
1110.3 K	–	2073.1 kg/m3	–
1110.5 K	0.05682	–	–
1110.6 K	–	2072 kg/m3	–
1111.2 K	–	2071.9 kg/m3	–
1111.6 K	–	2071.3 kg/m3	–
1111.8 K	–	2070.8 kg/m3	–
1112 K	–	–	221.4
1112.3 K	0.05703	2070.1 kg/m3	–
1112.8 K	–	2069.5 kg/m3	–
1113 K	–	2069.5 kg/m3	–
1113.5 K	–	2068.9 kg/m3	–
1114 K	0.05718	–	–
1114.2 K	–	2068.3 kg/m3	–
1114.3 K	–	2068.2 kg/m3	–
1114.7 K	–	2067.1 kg/m3 and 2067.6 kg/m3	–
1114.9 K	–	2066.5 kg/m3	–
1115.4 K	–	2066.4 kg/m3	–
1115.7 K	0.05729	2065.9 kg/m3	–
1115.9 K	–	2065.3 kg/m3	–
1116.2 K	–	2064.7 kg/m3	–
1116.7 K	–	2064.6 kg/m3	–
1117 K	–	2064 kg/m3	–
1117.4 K	0.05756	–	–
1117.5 K	–	2063.4 kg/m3	–
1118 K	–	2068.9 kg/m3	–
1118.4 K	–	2068.3 kg/m3	–
1118.8 K	–	2067.7 kg/m3	–
1119 K	–	2067.7 kg/m3	–
1119.2 K	0.05765	–	–
1119.4 K	–	2067.1 kg/m3	–
1119.7 K	–	2066.5 kg/m3	–
1120.1 K	–	2065.9 kg/m3	–
1120.5 K	–	2065.8 kg/m3	–
1120.9 K	0.0578	–	–
1121 K	–	2069.1 kg/m3	–
1121.2 K	–	2068.5 kg/m3	–
1121.7 K	–	2067.9 kg/m3	–
1122.2 K	–	2067.3 kg/m3	–
1122.5 K	–	2066.7 kg/m3	–
1122.7 K	0.05808	–	–
1123.3 K	–	2066.1 kg/m3 and 2066.6 kg/m3	–
1123.7 K	–	2065.5 kg/m3	–
1124.4 K	0.05824	2064.8 kg/m3	–
1124.8 K	–	2064.2 kg/m3	–
1125.1 K	–	2063.6 kg/m3	–
1126 K	–	2063.5 kg/m3	–
1126.1 K	0.05803	–	–
1126.2 K	–	2062.9 kg/m3	–
1126.3 K	–	2062.4 kg/m3	–
1126.7 K	–	2061.8 kg/m3	–
1127.5 K	–	2061.1 kg/m3	–
1127.9 K	0.05831	2060.5 kg/m3 and 2061.1 kg/m3	–
1128.4 K	–	2059.9 kg/m3	–
1128.8 K	–	2059.9 kg/m3	–
1128.9 K	–	2069.8 kg/m3	–
1129.5 K	0.0585	–	–
1129.8 K	–	2069.1 kg/m3	–
1130.2 K	–	2068.5 kg/m3	–
1130.3 K	–	2068 kg/m3	–
1131 K	–	2067.3 kg/m3	218.4
